Measurements published in patent publication US12396459B2, “Synergistically effective herbicide composition comprising pyridate and at least one defined 4-HPPD inhibitor” (BELCHIM CROP PROTECTION NV, priority 2018, dated 2025).

Experiments:
Assay type in all cases: in vivo
[1] = system: Cirsium arvense; test: Field trial post-emergence in maize: CIRAR; conditions: # = 1, g a.c./ha: PYR 300, MES 100, PYR + MES 300 + 90
Method: (§1) Herbicidal activity of herbicide compositions according to the first aspect of the present invention with regard to different types of unwanted vegetation was determined during trials performed on test fields (field trials). Individual compositions comprising pyridate and individual compositions comprising a defined 4-HPPD inhibitor are compared with a herbicide composition according to the invention comprising both pyridate and a defined 4-HPPD inhibitor. The expected activity of the combination of the active compounds pyridate and a defined 4-HPPD inhibitor is calculated according to above mentioned calculation method by Colby, in order to evaluate a synergistic effect between pyridate and a defined 4-HPPD inhibitor.
(§2) Herbicidal activity was determined by applying herbicide compositions on emerged unwanted vegetation on fields where maize was cultivated. Pyridate and a defined 4-HPPD inhibitor were applied as a tank mixture by mixing these active compounds prior to use in a spray tank. The corresponding mixture was in the form of a spray liquor. Besides, spray liquors of individual compositions comprising pyridate and of individual compositions comprising a defined 4-HPPD inhibitor were used. Test plants of unwanted vegetation with a growth stage corresponding to BBCH 10-18 (according to the extended BBCH-scale) were sprayed with the active compound preparations such that particular desired amounts of active compounds are applied per unit area. Spray liquor was diluted with water to arrive at an application volume of 50 to 450 L/ha. At a specified number of days after application (DAA), the degree of damage to the unwanted vegetation is rated in % of plants of unwanted vegetation that were killed, which was assessed by visually controlling the plants.

[2] = system: Geranium dissectum; test: Examples 6-8 herbicidal effect: GERDI; conditions: 7 DAA
[3] = system: Polygonum aviculare; test: Field trial post-emergence in maize: POLAV
Method: as §1, §2
(§3) Example 1 concerns a herbicide composition comprising a combination of pyridate and mesotrione, which was applied post-emergence on unwanted vegetation on a field where maize was cultivated, according to the test conditions mentioned above.

[4] = system: Fallopia convolvulus; test: Field trial post-emergence in maize: POLCO
Method: as §1, §2

[5] = system: Galinsoga parviflora; test: Field trial post-emergence in maize: GASPA; conditions: 31-48 DAA; # = 3; g a.c./ha: PYR 300, MES 100, PYR + MES 300 + 90
Method: as §1
(§4) Herbicidal activity was determined by applying herbicide compositions on emerged unwanted vegetation on fields where maize was cultivated. Pyridate and a defined 4-HPPD inhibitor were applied as a tank mixture by mixing these active compounds prior to use in a spray tank. The corresponding mixture was in the form of a spray liquor. […] At a specified number of days after application (DAA), the degree of damage to the unwanted vegetation is rated in % of plants of unwanted vegetation that were killed, which was assessed by visually controlling the plants.

[6] = system: Brassica napus; test: Field trial post-emergence in maize: BRSNN; conditions: # = 1, g a.c./ha: PYR 300, MES 100, PYR + MES 300 + 90
Method: as §1, §2

[7] = system: Datura stramonium; test: Field trial post-emergence in maize: DATST; conditions: 7-14 DAA; # = 2; g a.c./ha: PYR 300, MES 100, PYR + MES 300 + 90
Method: as §1, §4

[8] = system: Tripleurospermum inodorum; test: Field trial post-emergence in maize: MATIN; conditions: for herbicidal effect (h.e.): # = 1, g a.c./ha: PYR 300, MES 100, PYR + MES 300 + 90
Method: as §1, §2

[9] = system: Veronica persica; test: Examples 6-8 herbicidal effect: VERPE; conditions: 7 DAA
[10] = system: unwanted vegetation (UVEG); test: Field trials Examples 1-5 (incl. Table 1), post-emergence on unwanted vegetation in maize; conditions: 14-20 DAA
Method: as §1, §2

[11] = system: Brassica napus (winter); test: Field trial post-emergence in maize: BRSNW; conditions: # = 1, g a.c./ha: PYR 300, MES 100, PYR + MES 300 + 90
Method: as §1, §2

[12] = system: Stellaria media; test: Field trial post-emergence in maize: STEME
Method: as §1, §2

[13] = system: Matricaria chamomilla; test: Examples 6-8 herbicidal effect: MATCH; conditions: 7 DAA
[14] = system: Matricaria chamomilla; test: Field trial post-emergence in maize: MATCH
Method: as §1, §2, §3

[15] = system: Solanum nigrum; test: Examples 6-8 herbicidal effect: SOLNI; conditions: 7 DAA
[16] = system: Geranium sp.; test: Field trial post-emergence in maize: GERSS; conditions: # = 1, g a.c./ha: PYR 300, MES 100, PYR + MES 300 + 90
Method: as §1, §2

[17] = system: Setaria viridis; test: Field trial post-emergence in maize: SETVI
Method: as §1, §2, §3

[18] = system: Setaria verticillata; test: Examples 6-8 herbicidal effect: SETVE; conditions: 7 DAA
[19] = g a.c./ha: PYR 10, TEM 22, PYR + TEM 10 + 100
[20] = g a.c./ha: PYR 300, PYR + MES 300 + 80
[21] = g a.c./ha: PYR 300, SCT 300, PYR + SCT 300 + 300
[22] = g a.c./ha: PYR 300, TEM 100, PYR + TEM 300 + 100
[23] = g a.c./ha: PYR 450, SCT 450, PYR + SCT 300 + 450
[24] = g a.c./ha: PYR 600, PYR + SCT 600 + 300
[25] = g a.c./ha: PYR 900, TEM 44, PYR + TEM 900 + 44

CCCCCCCCSC(=O)Oc1cc(Cl)nnc1-c1ccccc1 [PYR, (6-chloro-3-phenylpyridazin-4-yl) octylsulfanylformate]
herbicidal effect (h.e.) ([1]; 7-14 DAA): 23% | herbicidal effect (h.e.) ([1]; 31-48 DAA): 49% | herbicidal effect (h.e.) [2, 19]: 0% | herbicidal effect (h.e.) [2, 20]: 5% | herbicidal effect (h.e.) [2, 21]: 15% | herbicidal effect (h.e.) [2, 22]: 5% | herbicidal effect (h.e.) [2, 23]: 30% | herbicidal effect (h.e.) [2, 24]: 15% | herbicidal effect (h.e.) [2, 25]: 10% | PYR h.e. ([3]; POLAV 14-20 DAA 300 g a.c./ha): 18% | PYR h.e. ([3]; POLAV 24-31 DAA 300 g a.c./ha): 17% | herbicidal effect (h.e.) ([4]; 7-14 DAA, # = 5, g a.c./ha: PYR 300, MES 100, PYR + MES 300 + 90): 26% | herbicidal effect (h.e.) ([4]; 13-14 DAA, # = 1, g a.c./ha: PYR 450, MES 144, PYR + MES 450 + 144): 23% | herbicidal effect (h.e.) ([4]; 18-28 DAA, # = 8, g a.c./ha: PYR 300, MES 100, PYR + MES 300 + 90): 32% | herbicidal effect (h.e.) ([4]; 31-48 DAA, # = 8, g a.c./ha: PYR 300, MES 100, PYR + MES 300 + 90): 27% | PYR h.e. ([4]; POLCO 14-20 DAA 300 g a.c./ha): 31% | PYR h.e. ([4]; POLCO 14-20 DAA 600 g a.c./ha): 34% | PYR h.e. ([4]; POLCO 14-20 DAA 900 g a.c./ha): 47% | PYR h.e. ([4]; POLCO 24-31 DAA 300 g a.c./ha): 29% | PYR h.e. ([4]; POLCO 24-31 DAA 600 g a.c./ha): 29% | PYR h.e. ([4]; POLCO 24-31 DAA 900 g a.c./ha): 43% | herbicidal effect (h.e.) [5]: 40% | herbicidal effect (h.e.) ([6]; 7-14 DAA): 50% | herbicidal effect (h.e.) ([6]; 18-28 DAA): 11% | herbicidal effect (h.e.) ([6]; 31-48 DAA): 6% | herbicidal effect (h.e.) [7]: 70% | herbicidal effect (h.e.) ([8]; 7-14 DAA): 3% | herbicidal effect (h.e.) ([8]; 18-28 DAA): 5% | herbicidal effect (h.e.) ([8]; 31-48 DAA): 5% | PYR h.e. ([8]; MATIN 24-31 DAA 300 g a.c./ha): 75% | PYR h.e. ([8]; MATIN 24-31 DAA 600 g a.c./ha): 60% | PYR h.e. ([8]; MATIN 24-31 DAA 900 g a.c./ha): 55% | herbicidal effect (h.e.) [9, 19]: 0% | herbicidal effect (h.e.) [9, 20]: 8% | herbicidal effect (h.e.) [9, 21]: 10% | herbicidal effect (h.e.) [9, 22]: 10% | herbicidal effect (h.e.) [9, 23]: 15% | herbicidal effect (h.e.) [9, 24]: 10% | herbicidal effect (h.e.) [9, 25]: 50% | PYR h.e. (%) ([10]; VIOAR (Viola arvensis), # = 3, first VIOAR block (r259-264), PYR 900 g a.c./ha): 50% | PYR h.e. (%) ([10]; VIOAR (Viola arvensis), # = 3, second VIOAR block (r265-272), PYR 300 g a.c./ha): 27% | PYR h.e. (%) ([10]; VIOAR, # = 3, second VIOAR block (r265-272), PYR 600 g a.c./ha): 34% | PYR h.e. (%) ([10]; VIOAR, # = 3, second VIOAR block (r265-272), PYR 900 g a.c./ha): 47% | herbicidal effect (h.e.) ([11]; 7-14 DAA): 5% | herbicidal effect (h.e.) ([11]; 18-28 DAA): 5% | herbicidal effect (h.e.) ([12]; 18-28 DAA, # = 4, g a.c./ha: PYR 300, MES 100, PYR + MES 300 + 90): 35% | PYR h.e. ([12]; STEME 14-20 DAA 300 g a.c./ha): 18% | PYR h.e. ([12]; STEME 14-20 DAA 600 g a.c./ha): 42% | PYR h.e. ([12]; STEME 14-20 DAA 900 g a.c./ha): 55% | PYR h.e. ([12]; STEME 24-31 DAA 300 g a.c./ha): 16% | PYR h.e. ([12]; STEME 24-31 DAA 600 g a.c./ha): 30% | PYR h.e. ([12]; STEME 24-31 DAA 900 g a.c./ha): 50% | herbicidal effect (h.e.) [13, 19]: 0% | herbicidal effect (h.e.) [13, 20]: 0% | herbicidal effect (h.e.) [13, 21]: 0% | herbicidal effect (h.e.) [13, 22]: 0% | herbicidal effect (h.e.) [13, 23]: 0% | herbicidal effect (h.e.) [13, 24]: 0% | herbicidal effect (h.e.) [13, 25]: 0% | PYR h.e. ([14]; MATCH 14-20 DAA 300 g a.c./ha): 25% | PYR h.e. ([14]; MATCH 14-20 DAA 600 g a.c./ha): 45% | PYR h.e. ([14]; MATCH 14-20 DAA 900 g a.c./ha): 61% | PYR h.e. ([14]; MATCH 24-31 DAA 300 g a.c./ha): 5% | PYR h.e. ([14]; MATCH 24-31 DAA 600 g a.c./ha): 26% | PYR h.e. ([14]; MATCH 24-31 DAA 900 g a.c./ha): 39% | herbicidal effect (h.e.) [15, 19]: 0% | herbicidal effect (h.e.) [15, 20]: 11% | herbicidal effect (h.e.) [15, 21]: 10% | herbicidal effect (h.e.) [15, 22]: 10% | herbicidal effect (h.e.) [15, 23]: 10% | herbicidal effect (h.e.) [15, 24]: 28% | herbicidal effect (h.e.) [15, 25]: 100% | herbicidal effect (h.e.) ([16]; 7-14 DAA): 13% | herbicidal effect (h.e.) ([16]; 18-28 DAA): 0% | herbicidal effect (h.e.) ([16]; 31-48 DAA): 0% | PYR h.e. ([17]; SETVI 14-20 DAA 300 g a.c./ha): 10% | PYR h.e. ([17]; SETVI 14-20 DAA 600 g a.c./ha): 20% | PYR h.e. ([17]; SETVI 14-20 DAA 900 g a.c./ha): 25% | PYR h.e. ([17]; SETVI 24-31 DAA 300 g a.c./ha): 0% | PYR h.e. ([17]; SETVI 24-31 DAA 600 g a.c./ha): 0% | PYR h.e. ([17]; SETVI 24-31 DAA 900 g a.c./ha): 0% | herbicidal effect (h.e.) [18, 19]: 0% | herbicidal effect (h.e.) [18, 20]: 0% | herbicidal effect (h.e.) [18, 21]: 10% | herbicidal effect (h.e.) [18, 22]: 0% | herbicidal effect (h.e.) [18, 23]: 7% | herbicidal effect (h.e.) [18, 24]: 10% | herbicidal effect (h.e.) [18, 25]: 0%
